Source: article PMC10174618, “Monoterpenoid aryl hydrocarbon receptor allosteric antagonists protect against ultraviolet skin damage in female mice” (Nature Communications, 2023)

How the values were obtained:
Experiment in all cases: biochemical
Parameters in all cases: KINOMEscan scanMAX active site-directed competition binding assay, percent of control, 468 kinases
Conditions in all cases: competition binding, percent of control
[1] = biological target: T1, ABL1(F317I)-phosphorylated (Homo sapiens, UniProt P00519, F317I)
T1 construct: phosphorylated
Outline: (§1)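 Single-concentration screen (100 μM S-carvone) in a competition binding panel of 468 human kinases (KINOMEscan scanMAX); results given as percent of control, hit cutoff 35%.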

ALK = ALK (Homo sapiens, UniProt Q9UM73)
Outline: as §1

BLK = BLK (Homo sapiens, UniProt P51451)
Sequence of BLK (P51451 whole entry): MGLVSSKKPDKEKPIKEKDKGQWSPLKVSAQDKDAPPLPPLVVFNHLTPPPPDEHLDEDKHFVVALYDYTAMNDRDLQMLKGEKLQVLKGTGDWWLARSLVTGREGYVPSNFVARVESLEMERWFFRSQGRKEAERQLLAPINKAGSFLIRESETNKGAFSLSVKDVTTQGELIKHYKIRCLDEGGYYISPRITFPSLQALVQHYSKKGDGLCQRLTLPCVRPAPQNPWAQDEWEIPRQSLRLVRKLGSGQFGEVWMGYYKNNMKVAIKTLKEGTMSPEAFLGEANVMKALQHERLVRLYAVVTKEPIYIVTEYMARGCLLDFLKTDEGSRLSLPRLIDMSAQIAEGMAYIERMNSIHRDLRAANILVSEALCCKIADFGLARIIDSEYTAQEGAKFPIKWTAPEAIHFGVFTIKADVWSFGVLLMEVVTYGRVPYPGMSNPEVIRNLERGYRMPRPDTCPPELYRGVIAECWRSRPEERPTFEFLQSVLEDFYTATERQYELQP
Outline: as §1

EGFR(L858R,T790M) = EGFR(L858R,T790M) (Homo sapiens, UniProt P00533, L858R/T790M)
Outline: as §1

FLT3(ITD,F691L) = FLT3(ITD,F691L) (Homo sapiens, UniProt P36888, F691L/ITD)
Sequence of FLT3(ITD,F691L) (P36888 564-993 F691L): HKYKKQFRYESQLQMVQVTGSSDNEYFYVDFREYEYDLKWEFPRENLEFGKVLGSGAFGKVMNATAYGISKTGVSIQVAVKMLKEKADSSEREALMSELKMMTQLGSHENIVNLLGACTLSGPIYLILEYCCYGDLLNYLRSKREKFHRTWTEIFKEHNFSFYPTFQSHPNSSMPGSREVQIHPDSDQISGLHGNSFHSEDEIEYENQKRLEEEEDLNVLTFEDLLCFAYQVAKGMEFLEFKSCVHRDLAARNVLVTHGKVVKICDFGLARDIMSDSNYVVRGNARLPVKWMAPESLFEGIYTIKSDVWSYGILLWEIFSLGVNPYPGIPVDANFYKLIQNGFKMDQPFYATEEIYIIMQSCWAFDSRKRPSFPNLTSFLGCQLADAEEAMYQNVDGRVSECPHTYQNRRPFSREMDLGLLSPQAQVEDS
Outline: as §1

FLT4 = FLT4 (Homo sapiens, UniProt P35916)
Outline: as §1

GCN2(Kin.Dom.2,S808G) = biological target: T2, GCN2(Kin.Dom.2,S808G) (Homo sapiens, UniProt Q9P2K8, S808G)
T2 construct: gene EIF2AK4; Kin.Dom.2
T2 sequence (Q9P2K8 whole entry S808G): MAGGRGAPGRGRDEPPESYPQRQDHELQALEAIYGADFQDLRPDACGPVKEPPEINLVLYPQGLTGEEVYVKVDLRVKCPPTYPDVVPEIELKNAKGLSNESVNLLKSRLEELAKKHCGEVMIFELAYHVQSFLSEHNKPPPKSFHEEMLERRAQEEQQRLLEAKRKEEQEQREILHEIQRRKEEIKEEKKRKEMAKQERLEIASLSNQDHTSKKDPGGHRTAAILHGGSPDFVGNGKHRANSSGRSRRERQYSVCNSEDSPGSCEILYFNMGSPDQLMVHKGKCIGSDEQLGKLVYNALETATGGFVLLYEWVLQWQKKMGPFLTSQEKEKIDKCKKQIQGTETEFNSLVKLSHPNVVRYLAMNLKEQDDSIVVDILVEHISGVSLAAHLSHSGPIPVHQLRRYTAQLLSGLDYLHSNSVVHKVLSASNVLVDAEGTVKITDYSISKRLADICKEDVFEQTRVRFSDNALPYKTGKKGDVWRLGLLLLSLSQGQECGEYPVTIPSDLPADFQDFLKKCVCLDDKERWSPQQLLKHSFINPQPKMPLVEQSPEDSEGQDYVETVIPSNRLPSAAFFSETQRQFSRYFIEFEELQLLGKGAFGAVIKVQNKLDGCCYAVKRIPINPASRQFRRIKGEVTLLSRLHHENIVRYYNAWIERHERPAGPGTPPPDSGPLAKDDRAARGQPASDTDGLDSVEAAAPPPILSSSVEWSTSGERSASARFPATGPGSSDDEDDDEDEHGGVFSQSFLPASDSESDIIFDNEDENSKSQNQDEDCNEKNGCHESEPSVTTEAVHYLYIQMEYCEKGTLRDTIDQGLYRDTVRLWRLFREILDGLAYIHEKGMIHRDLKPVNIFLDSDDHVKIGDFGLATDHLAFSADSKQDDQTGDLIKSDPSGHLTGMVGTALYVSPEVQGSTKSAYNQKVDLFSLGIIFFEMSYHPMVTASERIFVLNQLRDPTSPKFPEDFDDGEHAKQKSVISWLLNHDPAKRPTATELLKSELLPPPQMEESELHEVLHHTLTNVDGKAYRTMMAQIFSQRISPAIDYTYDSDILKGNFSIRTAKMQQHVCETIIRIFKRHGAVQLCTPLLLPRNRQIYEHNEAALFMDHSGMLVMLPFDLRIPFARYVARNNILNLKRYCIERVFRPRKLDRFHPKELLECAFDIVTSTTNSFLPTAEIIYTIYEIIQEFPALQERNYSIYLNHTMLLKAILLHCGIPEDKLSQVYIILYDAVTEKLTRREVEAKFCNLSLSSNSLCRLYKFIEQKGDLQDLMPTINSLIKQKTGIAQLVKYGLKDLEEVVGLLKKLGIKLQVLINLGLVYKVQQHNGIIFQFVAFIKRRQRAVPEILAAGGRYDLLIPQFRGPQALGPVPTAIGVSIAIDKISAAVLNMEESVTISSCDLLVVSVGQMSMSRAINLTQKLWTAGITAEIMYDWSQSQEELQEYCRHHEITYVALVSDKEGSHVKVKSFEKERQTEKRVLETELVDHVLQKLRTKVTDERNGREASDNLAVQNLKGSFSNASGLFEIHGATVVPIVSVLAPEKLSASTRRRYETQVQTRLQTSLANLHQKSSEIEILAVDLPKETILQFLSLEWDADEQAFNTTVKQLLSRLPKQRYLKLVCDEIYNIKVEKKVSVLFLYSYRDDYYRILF
Outline: as §1

GSK3A = GSK3A (Homo sapiens, UniProt P49840)
Sequence of GSK3A (P49840 whole entry): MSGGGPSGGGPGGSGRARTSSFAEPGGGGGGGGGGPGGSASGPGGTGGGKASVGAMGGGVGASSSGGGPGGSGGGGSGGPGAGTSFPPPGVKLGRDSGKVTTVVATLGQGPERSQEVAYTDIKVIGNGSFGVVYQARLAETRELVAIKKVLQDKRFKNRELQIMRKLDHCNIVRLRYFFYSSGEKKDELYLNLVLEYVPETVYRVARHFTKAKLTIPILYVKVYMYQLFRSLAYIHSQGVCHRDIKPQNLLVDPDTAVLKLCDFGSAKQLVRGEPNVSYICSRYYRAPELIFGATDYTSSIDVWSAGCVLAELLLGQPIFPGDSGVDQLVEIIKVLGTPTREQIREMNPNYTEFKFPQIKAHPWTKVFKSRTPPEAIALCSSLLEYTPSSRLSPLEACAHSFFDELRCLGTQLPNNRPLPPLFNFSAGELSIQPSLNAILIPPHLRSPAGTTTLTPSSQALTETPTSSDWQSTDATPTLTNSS
Outline: as §1

IGF1R = IGF1R (Homo sapiens, UniProt P08069)
Outline: as §1

JNK1 = biological target: T3, JNK1 (Homo sapiens, UniProt P45983)
T3 construct: gene MAPK8
Outline: as §1

LOK = biological target: T4, LOK (Homo sapiens, UniProt O94804)
T4 construct: gene STK10
T4 sequence (O94804 whole entry): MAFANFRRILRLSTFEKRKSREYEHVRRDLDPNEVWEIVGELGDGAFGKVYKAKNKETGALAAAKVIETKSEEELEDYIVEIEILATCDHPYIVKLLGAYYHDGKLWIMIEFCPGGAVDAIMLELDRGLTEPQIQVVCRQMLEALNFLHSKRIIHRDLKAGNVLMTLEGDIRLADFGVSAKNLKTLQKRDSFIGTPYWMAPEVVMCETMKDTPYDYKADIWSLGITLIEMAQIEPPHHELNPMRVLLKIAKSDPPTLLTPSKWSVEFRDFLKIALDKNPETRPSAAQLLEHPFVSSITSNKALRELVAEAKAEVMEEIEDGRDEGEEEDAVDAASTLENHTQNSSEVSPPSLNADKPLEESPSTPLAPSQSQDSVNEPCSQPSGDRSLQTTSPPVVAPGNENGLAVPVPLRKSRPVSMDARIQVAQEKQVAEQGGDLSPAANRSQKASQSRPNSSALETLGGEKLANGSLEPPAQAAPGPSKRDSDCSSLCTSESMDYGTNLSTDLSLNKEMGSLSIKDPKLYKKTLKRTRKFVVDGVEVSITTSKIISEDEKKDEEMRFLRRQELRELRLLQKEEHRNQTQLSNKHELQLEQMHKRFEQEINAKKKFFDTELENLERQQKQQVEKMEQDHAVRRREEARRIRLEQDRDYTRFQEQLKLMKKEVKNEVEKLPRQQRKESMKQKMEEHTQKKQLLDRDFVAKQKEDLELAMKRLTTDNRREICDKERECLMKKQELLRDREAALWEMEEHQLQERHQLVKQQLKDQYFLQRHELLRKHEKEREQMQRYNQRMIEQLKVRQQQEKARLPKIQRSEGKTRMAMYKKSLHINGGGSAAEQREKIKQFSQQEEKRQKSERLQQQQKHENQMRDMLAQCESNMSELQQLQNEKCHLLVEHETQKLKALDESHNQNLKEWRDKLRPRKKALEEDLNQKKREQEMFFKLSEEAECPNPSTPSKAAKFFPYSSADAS
Outline: as §1

MEK3 = biological target: T5, MEK3 (Homo sapiens, UniProt P46734)
T5 construct: gene MAP2K3
Outline: as §1

NEK5 = NEK5 (Homo sapiens, UniProt Q6P3R8)
Outline: as §1

PIK4CB = biological target: T6, PIK4CB (Homo sapiens, UniProt Q9UBF8)
T6 construct: gene PI4KB
Outline: as §1

PRKR = biological target: T7, PRKR (Homo sapiens, UniProt P19525)
T7 construct: gene EIF2AK2
T7 sequence (P19525 whole entry): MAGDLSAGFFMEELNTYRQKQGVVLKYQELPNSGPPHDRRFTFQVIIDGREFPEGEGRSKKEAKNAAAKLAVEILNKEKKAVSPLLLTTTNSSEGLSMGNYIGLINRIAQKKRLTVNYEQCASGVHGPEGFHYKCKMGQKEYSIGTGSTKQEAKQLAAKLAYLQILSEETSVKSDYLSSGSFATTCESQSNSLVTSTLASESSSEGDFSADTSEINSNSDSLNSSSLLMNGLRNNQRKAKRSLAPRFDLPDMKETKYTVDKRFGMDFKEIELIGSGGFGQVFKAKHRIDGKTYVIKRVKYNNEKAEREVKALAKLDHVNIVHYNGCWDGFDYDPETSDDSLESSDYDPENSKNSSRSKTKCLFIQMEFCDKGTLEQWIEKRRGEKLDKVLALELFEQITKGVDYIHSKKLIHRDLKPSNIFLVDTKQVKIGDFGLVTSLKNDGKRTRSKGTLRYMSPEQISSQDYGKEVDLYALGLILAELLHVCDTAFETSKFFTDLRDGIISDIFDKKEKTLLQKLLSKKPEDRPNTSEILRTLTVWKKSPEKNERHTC
Outline: as §1

PRKX = PRKX (Homo sapiens, UniProt P51817)
Sequence of PRKX (P51817 whole entry): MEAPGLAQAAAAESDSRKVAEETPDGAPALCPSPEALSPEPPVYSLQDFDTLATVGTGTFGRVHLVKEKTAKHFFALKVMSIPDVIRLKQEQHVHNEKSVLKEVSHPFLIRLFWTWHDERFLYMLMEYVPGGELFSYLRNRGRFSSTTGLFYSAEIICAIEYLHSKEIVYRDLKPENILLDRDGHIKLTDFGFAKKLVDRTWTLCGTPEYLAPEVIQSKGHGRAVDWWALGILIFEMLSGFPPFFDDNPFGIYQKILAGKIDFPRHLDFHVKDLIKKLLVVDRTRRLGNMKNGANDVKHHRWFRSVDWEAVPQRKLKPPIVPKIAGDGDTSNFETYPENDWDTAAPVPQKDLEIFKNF
Outline: as §1

[2] = biological target: T8, RSK1(Kin.Dom.1-N-terminal) (Homo sapiens, UniProt Q15418)
T8 construct: gene RPS6KA1; Kin.Dom.1-N-terminal
Outline: as §1

SNRK = SNRK (Homo sapiens, UniProt Q9NRH2)
Outline: as §1

ULK3 = ULK3 (Homo sapiens, UniProt Q6PHR2)
Outline: as §1

WNK4 = WNK4 (Homo sapiens, UniProt Q96J92)
Outline: as §1

p38-beta = biological target: T9, p38-beta (Homo sapiens, UniProt Q15759)
T9 construct: gene MAPK11
Outline: as §1

remaining binding at 100 µM [1]: 97% | remaining binding at 100 µM (ALK): 73% | remaining binding at 100 µM (BLK): 80% | remaining binding at 100 µM (EGFR(L858R,T790M)): 60% | remaining binding at 100 µM (FLT3(ITD,F691L)): 71% | remaining binding at 100 µM (FLT4): 90% | remaining binding at 100 µM (GCN2(Kin.Dom.2,S808G)): 63% | remaining binding at 100 µM (GSK3A): 100% | remaining binding at 100 µM (IGF1R): 82% | remaining binding at 100 µM (JNK1): 80% | remaining binding at 100 µM (LOK): 87% | remaining binding at 100 µM (MEK3): 84% | remaining binding at 100 µM (NEK5): 93% | remaining binding at 100 µM (PIK4CB): 65% | remaining binding at 100 µM (PRKR): 74% | remaining binding at 100 µM (PRKX): 100% | remaining binding at 100 µM [2]: 91% | remaining binding at 100 µM (SNRK): 75% | remaining binding at 100 µM (ULK3): 77% | remaining binding at 100 µM (WNK4): 77% | remaining binding at 100 µM (p38-beta): 98%
SMILES: C=C(C)[C@H]1CC=C(C)C(=O)C1 [S-carvone]
